Results reported in the NIST ThermoML archive (doi:10.1021/je1009976).

Assay: xn = mol fraction of the nth substance listed
Conditions: 101 kPa, Liquid; for viscosity: Capillary tube (Ostwald / Ubbelohde) method; for mass density: Pycnometric method

OCCOCCO [diethylene glycol] + O
Conditions | mass density, 303.15 K [kg/m3] | mass density, 308.15 K [kg/m3] | mass density, 313.15 K [kg/m3] | mass density, 318.15 K [kg/m3] | mass density, 323.15 K [kg/m3] | viscosity, 303.15 K [mPa·s] | viscosity, 308.15 K [mPa·s] | viscosity, 313.15 K [mPa·s] | viscosity, 318.15 K [mPa·s] | viscosity, 323.15 K [mPa·s]
x1 = 0.05006 | 1028.38 | 1026.09 | 1023.67 | 1021.08 | 1018.36 | 1.556 | 1.37 | 1.222 | 1.091 | 0.985
x1 = 0.1016 | 1051.83 | 1048.94 | 1046.02 | 1043.03 | 1039.94 | 2.582 | 2.242 | 1.962 | 1.729 | 1.535
x1 = 0.1512 | 1067.99 | 1065.34 | 1062.04 | 1058.72 | 1055.2 | 3.83 | 3.286 | 2.833 | 2.459 | 2.161
x1 = 0.2012 | 1078.71 | 1075.25 | 1071.77 | 1068.24 | 1064.5 | 5.261 | 4.448 | 3.806 | 3.286 | 2.846
x1 = 0.2477 | 1086.55 | 1082.95 | 1079.42 | 1075.76 | 1072.18 | 6.653 | 5.591 | 4.739 | 4.052 | 3.506
x1 = 0.298 | 1092.27 | 1088.52 | 1084.97 | 1081.58 | 1077.47 | 8.301 | 6.91 | 5.82 | 4.962 | 4.252
x1 = 0.3505 | 1096.22 | 1092.42 | 1088.68 | 1084.97 | 1081.16 | 9.851 | 8.154 | 6.821 | 5.768 | 4.929
x1 = 0.4483 | 1101.17 | 1097.58 | 1093.68 | 1089.91 | 1086.1 | 12.54 | 10.29 | 8.514 | 7.148 | 6.071
x1 = 0.5421 | 1103.74 | 1100.11 | 1096.37 | 1092.91 | 1088.98 | 15.06 | 12.28 | 10.14 | 8.478 | 7.143
x1 = 0.6518 | 1106.25 | 1102.58 | 1098.97 | 1095.29 | 1091.34 | 17.46 | 14.11 | 11.63 | 9.672 | 8.114
x1 = 0.7525 | 1107.78 | 1103.95 | 1100.25 | 1096.58 | 1093.18 | 19.3 | 15.64 | 12.82 | 10.65 | 8.937
x1 = 0.7864 | 1107.94 | 1104.26 | 1100.56 | 1096.89 | 1093.37 | 19.9 | 16.12 | 13.23 | 10.96 | 9.19
x1 = 0.8499 | 1108.55 | 1104.93 | 1101.32 | 1097.62 | 1093.91 | 20.61 | 16.74 | 13.73 | 11.42 | 9.461
x1 = 0.9005 | 1108.84 | 1105.16 | 1101.55 | 1097.87 | 1094.19 | 21.31 | 17.23 | 14.08 | 11.69 | 9.799
x1 = 0.9503 | 1109.66 | 1105.58 | 1101.98 | 1098.33 | 1094.55 | 21.74 | 17.53 | 14.41 | 11.92 | 9.999
x1 = 1 | 1109.48 | 1105.72 | 1102.11 | 1098.35 | 1094.94 | 22.16 | 17.93 | 14.71 | 12.19 | 10.19
